Test results from the supplement of paper PMC10307832.

Compound: CCOC1=CC=CC=C1N=NC2=C(NN(C2=O)C3=NC(=CS3)C4=CC=CC=C4)C [BAM7] + O=C(CCCCCCC(=O)Nc1ccccc1)NO [Vorinostat] (partner 1 µM)
Assay: relative viability (nuclei count vs DMSO), 5 days (fraction); higher = more cells survive
Details: first compound 0.5 µM
Outline: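 Relative viability was taken as the ratio of nuclei in treated wells to nuclei in vehicle wells. Lung cancer cell lines in 1536-well plates received compounds by pin tool one day after seeding, either one drug alone or a fixed anchor-drug dose plus five library-drug doses (not always all listed) in √10 steps. Nuclei were counted on 4× images after 5 days of treatment, and values are medians of duplicate plates.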

First: NCI-H441
Second: NCI-H661
The relative viability of the first is higher: 1.1 for the first, 0.82 for the second.

Going from NCI-H1734 to NCI-H460, the relative viability falls from 0.841 to 0.657.

Compared with NCI-H2347, SK-LU-1 is higher in relative viability: 0.691 for the first, 0.83 for the second.

First: NCI-H1395
Second: 201T
The relative viability of the first is lower: 0.662 for the first, 0.797 for the second.

Compared with NCI-H1915, HCC-827 is higher in relative viability: 0.487 for the first, 0.806 for the second.

First: LXF-289
Second: NCI-H23
The relative viability of the first is higher: 0.82 for the first, 0.559 for the second.

First: NCI-H647
Second: CAL-12T
The relative viability of the first is lower: 0.4 for the first, 0.794 for the second.

Going from NCI-H1651 to EPLC-272H, the relative viability rises from 0.543 to 0.623.

Compared with NCI-H2228, NCI-H1355 is higher in relative viability: 0.448 for the first, 0.617 for the second.

Compared with NCI-H3122, NCI-H1437 is lower in relative viability: 0.985 for the first, 0.734 for the second.

Compared with NCI-H1755, NCI-H2023 is lower in relative viability: 0.751 for the first, 0.635 for the second.

Going from HCC-15 to NCI-H1793, the relative viability rises from 0.703 to 0.751.

First: PC-14
Second: EKVX
The relative viability of the first is higher: 0.86 for the first, 0.611 for the second.

First: LC-2-ad
Second: NCI-H1944
The relative viability of the first is higher: 0.695 for the first, 0.521 for the second.

First: NCI-H1975
Second: RERF-LC-KJ
The relative viability of the first is higher: 0.681 for the first, 0.62 for the second.

Going from ABC-1 to NCI-H650, the relative viability falls from 1.04 to 0.541.

Cell Line PC-3 [JPC-3] has a relative viability of 0.754.

Same assay, conditions: first compound 5 µM

Going from NCI-H441 to NCI-H661, the relative viability rises from 0.607 to 0.843.

Going from NCI-H1734 to NCI-H460, the relative viability falls from 0.903 to 0.634.

First: NCI-H2347
Second: SK-LU-1
The relative viability of the first is lower: 0.653 for the first, 0.901 for the second.

First: NCI-H1395
Second: 201T
The relative viability of the first is lower: 0.678 for the first, 0.78 for the second.

Compared with NCI-H1915, HCC-827 is higher in relative viability: 0.564 for the first, 1 for the second.

Compared with LXF-289, NCI-H23 is lower in relative viability: 0.92 for the first, 0.674 for the second.

First: NCI-H647
Second: CAL-12T
The relative viability of the first is lower: 0.532 for the first, 0.788 for the second.

Going from NCI-H1651 to EPLC-272H, the relative viability falls from 0.59 to 0.427.

Compared with NCI-H2228, NCI-H1355 is lower in relative viability: 0.586 for the first, 0.553 for the second.

Going from NCI-H3122 to NCI-H1437, the relative viability falls from 0.887 to 0.669.

Compared with NCI-H1755, NCI-H2023 is lower in relative viability: 0.867 for the first, 0.577 for the second.

First: HCC-15
Second: NCI-H1793
The relative viability of the first is higher: 0.729 for the first, 0.715 for the second.

Compared with PC-14, EKVX is higher in relative viability: 0.616 for the first, 0.664 for the second.

First: LC-2-ad
Second: NCI-H1944
The relative viability of the first is higher: 0.737 for the first, 0.46 for the second.

First: NCI-H1975
Second: RERF-LC-KJ
The relative viability of the first is higher: 0.713 for the first, 0.601 for the second.

Compared with ABC-1, NCI-H358 is lower in relative viability: 1.45 for the first, 0.644 for the second.

Going from NCI-H650 to PC-3 [JPC-3], the relative viability rises from 0.531 to 0.793.

Same assay, conditions: first compound 15.81 µM

First: NCI-H441
Second: NCI-H661
The relative viability of the first is lower: 0.762 for the first, 0.784 for the second.

Going from NCI-H1734 to NCI-H460, the relative viability falls from 0.812 to 0.611.
